Assay results published in PMC9499463, “Potent Chlorambucil-Platinum(IV) Prodrugs” (International Journal of Molecular Sciences, 2022).
Where “and” joins values, the source holds several entries; their conditions need not be identical. Equal values may be shown once. Read-outs that look alike come from different tables or passages of the source.

Tests used:
HT29 colon cells = assay: ROS detection assay (DCFH-DA fluorescence); type: cell-based, human; details: compounds at GI50 concentration, TBHP and NAC 20 μM
Description: HT29 colon cells were stained by DCFH-DA and then treated with the compounds at each specific GI50 concentration. Upon ROS production, the DCFH-DA produced […], a fluorescent product. The measured fluorescence was, therefore, proportional to the produced ROS. […] 56CLB at 24 h reported 395 RFU, 437 RFU at 48 h, and 558 RFU at 72 h (Table 6, Figure 14 and Figure S42), respectively, showing a significant production of ROS in comparison to control cells. 5CLB at 24 h produced 337 RFU, 324 RFU at 48 h, and 376 RFU at 72 h (Table 6, Figure 14 and Figure S42), respectively.
To investigate for the presence of ROS in treated cells, DCFDA/H2DCFDA-cellular ROS Assay Kit (Abcam, Cambridge, MA, USA) was used, as described. A total of 25,000 cells/mL of HT29 cells in DMEM were seeded in 96-well plates. Cells were washed with 1X kit buffer, then stained with 25 μM 2’,7’-dichlorofluorescein diacetate (DCFH-DA) and incubated for 45 min. DCFH-DA was then removed, and cells were then re-washed with 1X kit buffer, after which phenol red free media was added. Cells were then treated with GI50 drug concentration for each complex. The plates were directly scanned to measure fluorescence (relative fluorescence units (RFU)) at different time points using the Glo-Max®-Multimode microplate reader (Promega Corporation, Alexandra, VIC, Australia) at an excitation/emission of 485/535 nm. To generate the positive control (20 μM tert-butyl hydroperoxide (TBHP)), cells were washed with 1X kit buffer, and stained with DCFDA (25 μM) for 45 min. DCFDA was then removed and TBHP was added in phenol red free media. The plate was scanned to measure the RFU at different time points as mentioned above. The same method applies for the negative control treated with 20 μM N-acetylcysteine (NAC).

MCF-7 breast [1] = details: MCF-7 cell line; read-out: GI50 MCF-7 of prodrug designed by Ma et al.; cited from earlier work
HT29 colon = assay: MTT growth inhibition assay, 72 h; type: cell-based, human; details: for GI50: MTT, 72 h
U87 glioblastoma = assay: MTT growth inhibition assay, 72 h; type: cell-based, human
MCF-7 breast [2] = assay: MTT growth inhibition assay, 72 h; type: cell-based, human; details: MTT, 72 h
A2780 ovarian = assay: MTT growth inhibition assay, 72 h; type: cell-based, human
H460 lung = assay: MTT growth inhibition assay, 72 h; type: cell-based, human
A431 skin = assay: MTT growth inhibition assay, 72 h; type: cell-based, human
Du145 prostate = assay: MTT growth inhibition assay, 72 h; type: cell-based, human; details: for GI50: MTT, 72 h
BE2-C neuroblastoma = assay: MTT growth inhibition assay, 72 h; type: cell-based, human
SJ-G2 glioblastoma = assay: MTT growth inhibition assay, 72 h; type: cell-based, human
MIA pancreas = assay: MTT growth inhibition assay, 72 h; type: cell-based, human; details: for GI50: MTT, 72 h; for fold more active than CLB: MIA pancreas cell line
[3] = test system: non-tumor-derived MCF10A breast line; assay: MTT growth inhibition assay, 72 h; type: cell-based, human
[4] = test system: ADDP ovarian (cisplatin-resistant A2780 clone); assay: MTT growth inhibition assay, 72 h; type: cell-based, human; details: for fold more active than cisplatin: ADDP ovarian cell line; for GI50: MTT, 72 h
panel of cell lines = assay: MTT growth inhibition assay, 72 h, over the cell line panel; type: cell-based, human
[5] = Lipophilicity by HPLC (log kw); type: physicochemical; details: chromatographic lipophilicity index, extrapolated to 100% d.i.H2O
Excerpt: For lipophilicity measurements, HPLC was utilized instead of the traditional shake-flask method, as described. A few studies have also reported the important and effective use of HPLC to measure the lipophilicity of compounds [66, 67]. Each complex was eluted under several isocratic ratios. A standard curve was then generated to calculate the log value of the capacity factor (log k) according to eqn (1). Following eqn (2), the percentage of organic solvent (CH3CN) in the mobile phase from each isocratic run was plotted against […] (Figure S34). Since log kw is the chromatographic lipophilicity index or measure of lipophilicity of the complex, a higher value corresponds to greater lipophilicity. Since PCLB, 5CLB, and 56CLB are structurally related, there were no significant variations in lipophilicity noted based on the calculated log kw values (Table 4). It is evident that PCLB is the least lipophilic of the group, with a calculated log kw value of 1.80, which is likely due to the absence of methyl groups in its phenanthroline system. 5CLB and 56CLB were the most lipophilic of the group with calculated log kw values of 1.90 and 1.87, respectively, and this is due to the presence of methyl substituents in their phenanthroline systems. […] Additionally, the chromatographic lipophilicity index of CLB was also measured using the abovementioned method, with a calculated log kw of 1.88, which is within the range observed for PCLB, 5CLB, and 56CLB. However, CLB was approximately 1-fold more lipophilic than PCLB. […] The order of increasing lipophilicity is […].
For lipophilicity measurements, analytical HPLC was utilized. Elution profiles were acquired on an Agilent Technologies 1260 Infinity instrument equipped with a Phenomenex Onyx^TM Monolithic C18-reverse phase column (100 × 4.6 mm, 5 µm pore size). The mobile phase consisted of solvents, A (0.06% TFA in d.i.H2O) and B (0.06% TFA in CH3CN/d.i.H2O (90:10)). Potassium iodide was used as an external dead volume marker to determine the dead time of the column. Retention times (TR) were measured at varying isocratic ratios ranging from 42% to 48% of solvent B at 1 mL/min. An injection volume of 10 µL was utilized. Capacity factors were determined according to Equation (1):(1) k=(TR−T0)/T0, where k is the capacity factor, TR is the retention time of the analyte, and T0 represents the dead time. A minimum of four different mobile compositions were used for each complex to calculate k. A linear plot was generated of log k against the concentration of CH3CN in the mobile phase to determine the value of log kw expressed by Equation (2):(2) logk=Sφ+logkw, where S is the slope, φ is the concentration of the CH3CN in the mobile phase and log kw represents the capacity factor of the complex in 100% d.i.H2O. […]

[6] = average over all cell lines tested, read-out: Average GI50 Values

SMILES | ROS Production (HT29 colon cells; 24 h) | ROS Production (HT29 colon cells; 48 h) | ROS Production (HT29 colon cells; 72 h) | GI50 (HT29 colon) | GI50 (U87 glioblastoma) | GI50 (MCF-7 breast [2]) | GI50 (A2780 ovarian) | GI50 (H460 lung) | GI50 (A431 skin) | GI50 (Du145 prostate) | GI50 (BE2-C neuroblastoma) | GI50 (SJ-G2 glioblastoma) | GI50 (MIA pancreas) | GI50 [3] | fold more active than cisplatin [4] | GI50 [4] | GI50 (panel of cell lines; [6]) | fold more active than CLB (MIA pancreas) | other results
CC(C)(C)OO [TBHP, tert-butyl hydroperoxide, reference compound] | 514 RFU and 514 ± 3 RFU | 336 RFU and 336 ± 2 RFU | 332 RFU and 332 ± 5 RFU | – | – | – | – | – | – | – | – | – | – | – | – | – | – | – | –
N.N.O=C([O-])CCCc1ccc(N(CCCl)CCCl)cc1.O=C([O-])CCCc1ccc(N(CCCl)CCCl)cc1.[Cl-].[Cl-].[Pt+4] | – | – | – | – | – | – | – | – | – | – | – | – | – | – | – | – | – | – | GI50 (MCF-7 breast [1]): 2190 ± 0.02 nM
Cc1cc2cccnc2c2ncccc12.N[C@H]1CCCC[C@@H]1N.[Cl][Pt][Cl] [5MESS, [Pt^II(5-methyl-1,10-phenanthroline)(1S,2S-diaminocyclohexane)]Cl2] | 204 ± 4 RFU | 205 ± 3 RFU | 188 ± 3 RFU | 33 ± 0.0038 nM | 320 ± 0.026 nM | 200 ± 0.012 nM | 61 ± 0.01 nM | 41 ± 0.005 nM | 120 ± 0.025 nM | 22 ± 0.0027 nM | 270 ± 0.038 nM | 220 ± 0.01 nM | 48 ± 0.002 nM | 30 ± 0.0018 nM | 800 fold | 34 ± 0.0023 nM | 117 ± 0.01 nM | – | –
Cc1c(C)c2cccnc2c2ncccc12.N[C@H]1CCCC[C@@H]1N.[Cl][Pt][Cl] [56MESS, [Pt^II(5,6-dimethyl-1,10-phenanthroline)(1S,2S-diaminocyclohexane)]Cl2] | 240 ± 5 RFU | 218 ± 3 RFU | 255 ± 4 RFU | 10 ± 0.0016 nM | 35 ± 0.0064 nM | 93 ± 0.044 nM | 76 ± 0.057 nM | 21 ± 0.0019 nM | 29 ± 0.001 nM | 4.6 ± 0.00039 nM | 59 ± 0.0041 nM | 66 ± 0.022 nM | 13 ± 0.002 nM | 16 ± 0.0012 nM | more than 2000 fold | 13 ± 0.0022 nM | 40 nM and 36 nM | ~4000 fold | fold more active than CLB (HT29 colon; HT29 colon cell line): ~4000 fold; fold increase in potency compared to CLB (Du145 prostate; Du145 prostate cell line): 6000 fold
N.N.[Cl][Pt][Cl] [Cisplatin, cis-diamminedichloroplatinum(II), reference compound] | 214 ± 9 RFU | 214 ± 9 RFU | 200 ± 9 RFU | 11300 nM | 3800 ± 1.1 nM | 6500 ± 0.8 nM | 1000 ± 0.1 nM | 900 ± 0.2 nM | 2400 ± 0.3 nM | 1200 ± 0.1 nM | 1900 ± 0.2 nM | 400 ± 0.1 nM | 7500 ± 1.3 nM | 5200 ± 0.52 nM | – | 28000 nM | 5842 ± 0.61 nM | 5 fold | –
N.N.O=C([O-])C1(C(=O)[O-])CCC1.[Pt+2] [Carboplatin, cis-diammine(1,1-cyclobutanedicarboxylato) platinum(II), reference compound] | – | – | – | > 50000 nM | > 50000 nM | > 50000 nM | 9200 ± 2.9 nM | 14000 nM | 24000 nM | 15000 nM | 19000 nM | 5700 ± 0.2 nM | > 50000 nM | > 50000 nM | – | > 50000 nM | 32200 nM | – | –
N[C@H]1CCCC[C@@H]1N.[Cl][Pt][Cl].c1cnc2c(c1)ccc1cccnc12 [PHENSS, [Pt^II(1,10-phenanthroline)(1S,2S-diaminocyclohexane)]Cl2] | 174 ± 2 RFU | 172 ± 9 RFU | 176 ± 7 RFU | 160 ± 0.045 nM | 980 ± 0.27 nM | 1500 ± 0.5 nM | 230 ± 0.03 nM | 360 ± 0.035 nM | 480 ± 0.17 nM | 100 ± 0.038 nM | 380 ± 0.046 nM | 330 ± 0.066 nM | 200 ± 0.057 nM | 300 ± 0.058 nM | 150 fold | 190 ± 0.047 nM | 434 ± 0.11 nM | – | –
O=C(O)CCCc1ccc(N(CCCl)CCCl)cc1 [CLB, 4-[bis(2-chloroethyl)amino] phenylbutyric acid, reference compound] | 110 ± 3 RFU | 190 RFU and 190 ± 5 RFU | 204 ± 4 RFU | – | – | – | – | – | – | – | – | – | – | – | – | – | – | – | GI50 (HT29 colon; Homo sapiens, HT-29): 39000 nM; GI50 (U87 glioblastoma; Homo sapiens): 38000 nM; GI50 (MCF-7 breast [2]; Homo sapiens, MCF7): 11000 nM; GI50 (A2780 ovarian; Homo sapiens, A2780): 4300 ± 0.4 nM; GI50 (H460 lung; Homo sapiens, NCI-H460): 11000 nM; GI50 (A431 skin; Homo sapiens, A-431): 35000 nM; GI50 (Du145 prostate; Homo sapiens, DU-145): 27000 nM; GI50 (BE2-C neuroblastoma; Homo sapiens, BE(2)-C): 20000 nM; GI50 (SJ-G2 glioblastoma; Homo sapiens, SJ-G2): 11000 nM; GI50 (MIA pancreas; Homo sapiens): 40000 nM; GI50 ([3]; Homo sapiens, MCF-10A): 17000 nM; GI50 ([4]; Homo sapiens, Cisplatin-resistant A2780): 16000 nM; GI50 (panel of cell lines; Homo sapiens, average over all cell lines tested, read-out: Average GI50 Values): 22000 nM; GI50 (panel of cell lines; Homo sapiens, range over the cell lines named in the sentence, read-out: GI50 values ranging (over cell lines)): 4300 to 40000 nM; log kw [5]: 1.88
O=C1[O][Pt]2([NH][C@@H]3CCCC[C@H]3[NH]2)[O]C1=O (relative stereo) [Oxaliplatin, trans-L-(1R,2R-diaminocyclohexane) oxalatoplatinum(II), reference compound] | – | – | – | 900 ± 0.2 nM | 1800 ± 0.2 nM | 500 ± 0.1 nM | 160 ± 0.1 nM | 1600 ± 0.1 nM | 4100 ± 0.5 nM | 2900 ± 0.4 nM | 900 ± 0.2 nM | 3000 ± 1.2 nM | 900 ± 0.2 nM | – | – | 800 ± 0.1 nM | 1463 ± 0.32 nM | 44 fold | –
CC(=O)N[C@@H](CS)C(=O)O [NAC, N-acetylcysteine, reference compound] | 71 ± 2 RFU | 85 ± 6 RFU | 91 ± 5 RFU | – | – | – | – | – | – | – | – | – | – | – | – | – | – | – | –
